These are literature values, as cited in patent US20030054382A1, “Infection of eukaryotic cells with viruses in vitro” (priority 1999, published 2003).

For this series, the system named is HCV. The conditions noted are these: pretreatment of the cells to be infected.

Take dextran sulfate: the “attachment of HCV to the cell surface and infection of the cells” value was “inhibits the attachment of HCV to the cell surface and prevents any infection of the cells”.
